From patent US6727226B2 (priority 2000, dated 2004)

Assays:
[1] = guinea pig, in vivo
[2] = system: neurotensin receptors; details: in vivo; cited from earlier work

Compound | duration of local anesthesia [1] | potency in inhibiting pain relative to neurotensin [2]
CCCCN1CCCCC1C(=O)Nc1c(C)cccc1C (centres unmarked) [bupivacaine] | slightly longer duration thatn lidocaine | –
contulakin-G | – | significantly more potent than neurotensin
